The values below come from the supplement of paper PMC11208160.

This data set is described as follows: recombinant UMI read abundance after kanamycin selection (control-corrected) (log10(CPM+1)); higher = more efficient recombination; extreme values may be limits of the assay; sequences stand for … in AGTGCAGAGAAAATCGGCCAGTTTTCTCTGCCTGCAGTCCGCATGCCGTGGGACCCCTTGGGTTCTAACCTGTTGCCTAGATTTATGCAGCGGACTGCCTTTCTCCCAAAGTGATAAACCGG…AGGTTGGTTTCACT; site = the 11-nt donor. Put shortly: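 Reported values are log10(CPM+1) from a pooled Escherichia coli screen of donor and donor-binding-loop pairs for the IS621 bridge recombinase. Selection used IPTG (0.07 mM) plus kanamycin, against unselected plating, each in two replicates. Recombinant UMIs were amplified across the donor–target junction, sequenced, converted to CPM, averaged over replicates and scaled by control-derived factors.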
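Note: IS621 bridge recombinase in Escherichia coli cells against a fixed T5 target plasmid.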

On to “CAAGCGCCATGGACCGGTTTTCCCGGTAATCCGTATTTGTG (site CAAGCGCCTTA)”, for which the “recombinant UMI read abundance (log10)” value turned out to be 0.627. The same measure for “CAAGCGCCATGGACCGGTTTTCCCGGTAATCCGTATTTGTG (site CAAGCGGCTCA)”: 0.00842. The same measure for “CAAGCGCCATGGACCGGTTTTCCCGGTAATCCGTATTTGTG (site CAAGCGTCTCA)”: 1.85; for “CAAGCGCCATGGACCGGTTTTCCCGGTAATCCGTATTTGTG (site CAAGCTCCTCA)”: 0.185; for “CAAGCGCCATGGACCGGTTTTCCCGGTAATCCGTATTTGTG (site CAAGGGCCTCA)”: 0.0216. “CAAGCGCCATGGACCGGTTTTCCCGGTAATCCGTATTTGTG (site CAAGTGCCTCA)”: the “recombinant UMI read abundance (log10)” value turned out to be 0.0157. Take “CAAGCGCCATGGACCGGTTTTCCCGGTAATCCGTATTTGTG (site CAATCGCCTCA)”: the “recombinant UMI read abundance (log10)” value was found to be 0.0117. Consider “CAAGCGCCATGGACCGGTTTTCCCGGTAATCCGTATTTGTG (site CACGCGCCTCA)”, for which the “recombinant UMI read abundance (log10)” value was found to be 0.0238. Take “CAAGCGCCATGGACCGGTTTTCCCGGTAATCCGTATTTGTG (site CAGGCGCCTCA)”: the “recombinant UMI read abundance (log10)” value came to 0.0473. Turning to “CAAGCGCCATGGACCGGTTTTCCCGGTAATCCGTATTTGTG (site CATGCGCCTCA)”, the “recombinant UMI read abundance (log10)” value was 0.047. As to “CAAGCGCCATGGACCGGTTTTCCCGGTAATCCGTATTTGTG (site CCAGCGCCTCA)”, the “recombinant UMI read abundance (log10)” value was 0.00697. For the sequence “CAAGCGCCATGGACCGGTTTTCCCGGTAATCCGTATTTGTG (site CGAGCGCCTCA)”, the “recombinant UMI read abundance (log10)” value stood at 0.0092. As to “CAAGCGCCATGGACCGGTTTTCCCGGTAATCCGTATTTGTG (site CTAGCGCCTCA)”, the “recombinant UMI read abundance (log10)” value stood at 0.0166.

Take “CAAGCGCCATGGACCGGTTTTCCCGGTAATCCGTATTTGTG (site GAAGCGCCTCA)”: the “recombinant UMI read abundance (log10)” value was 0.0137. For the sequence “CAAGCGCCATGGACCGGTTTTCCCGGTAATCCGTATTTGTG (site TAAGCGCCTCA)”, the “recombinant UMI read abundance (log10)” value worked out at 0.0306. Regarding “CAAGCGGCATGGACCGGTTTTCCCGGTAATCCGTATTTGCT (site CAAGCAGCTAG)”, the “recombinant UMI read abundance (log10)” value stood at 0.584. Regarding “CAAGCGGCATGGACCGGTTTTCCCGGTAATCCGTATTTGCT (site CAAGCCGCTAG)”, the “recombinant UMI read abundance (log10)” value is 0. Turning to “CAAGCGGCATGGACCGGTTTTCCCGGTAATCCGTATTTGCT (site CAAGCGGCTAG)”, the “recombinant UMI read abundance (log10)” value was determined as 1.72. For “CAAGCGGCATGGACCGGTTTTCCCGGTAATCCGTATTTGCT (site CAAGCTGCTAG)”, the “recombinant UMI read abundance (log10)” value came out at 0. The same measure for “CAAGCTGCATGGACCGGTTTTCCCGGTAATCCGTATTTGGG (site CAAGCTGCTCC)”: 0.0432. “CAAGGACCATGGACCGGTTTTCCCGGTAATCCGTATTTGGG (site CAAGGACCTCC)”: the “recombinant UMI read abundance (log10)” value is 0. For “CAAGGACCATGGACCGGTTTTCCCGGTAATCCGTATTTGGG (site CCAGGACCTCC)”, the “recombinant UMI read abundance (log10)” value was found to be 0.0136.

Take “CAAGGACCATGGACCGGTTTTCCCGGTAATCCGTATTTGGG (site CGAGGACCTCC)”: the “recombinant UMI read abundance (log10)” value is 0.0074. For “CAAGGACCATGGACCGGTTTTCCCGGTAATCCGTATTTGGG (site CTAGGACCTCC)”, the “recombinant UMI read abundance (log10)” value turned out to be 0.0255. As to “CAAGGCACATGGACCGGTTTTCCCGGTAATCCGTATTTGGG (site CAAGACACTCC)”, the “recombinant UMI read abundance (log10)” value was determined as 0.00686. As to “CAAGGCACATGGACCGGTTTTCCCGGTAATCCGTATTTGGG (site CAAGCCACTCC)”, the “recombinant UMI read abundance (log10)” value turned out to be 0.0196.

With “CAAGGCACATGGACCGGTTTTCCCGGTAATCCGTATTTGGG (site CAAGGCACTCC)”, the “recombinant UMI read abundance (log10)” value turned out to be 0.0216.

As to “CAAGGCACATGGACCGGTTTTCCCGGTAATCCGTATTTGGG (site CAAGTCACTCC)”, the “recombinant UMI read abundance (log10)” value was 0.397. “CAAGGCCCATGGACCGGTTTTCCCGGTAATCCGTATTTGTT (site CAAGGCCCTAA)”: the “recombinant UMI read abundance (log10)” value was determined as 0.0195. With “CAAGGCCCATGGACCGGTTTTCCCGGTAATCCGTATTTGTT (site CACGGCCCTAA)”, the “recombinant UMI read abundance (log10)” value was found to be 0.0285. As to “CAAGGCCCATGGACCGGTTTTCCCGGTAATCCGTATTTGTT (site CAGGGCCCTAA)”, the “recombinant UMI read abundance (log10)” value stood at 0.0144. On to “CAAGGCCCATGGACCGGTTTTCCCGGTAATCCGTATTTGTT (site CATGGCCCTAA)”, for which the “recombinant UMI read abundance (log10)” value stood at 0.0187. Consider “CAAGGCGCATGGACCGGTTTTCCCGGTAATCCGTATTTGGA (site CAAGGCGCTTC)”, for which the “recombinant UMI read abundance (log10)” value amounted to 1.42.

For “CAAGGGCCATGGACCGGTTTTCCCGGTAATCCGTATTTGTG (site CAAGAGCCTCA)”, the “recombinant UMI read abundance (log10)” value stood at 0.431. Take “CAAGGGCCATGGACCGGTTTTCCCGGTAATCCGTATTTGTG (site CAAGCGCCTCA)”: the “recombinant UMI read abundance (log10)” value came out at 0.0177.

Take “CAAGGGCCATGGACCGGTTTTCCCGGTAATCCGTATTTGTG (site CAAGGGCCTCA)”: the “recombinant UMI read abundance (log10)” value is 0.314.

On to “CAAGGGCCATGGACCGGTTTTCCCGGTAATCCGTATTTGTG (site CAAGTGCCTCA)”, for which the “recombinant UMI read abundance (log10)” value was determined as 0.115.

As for “CAAGGGGCATGGACCGGTTTTCCCGGTAATCCGTATTTGTT (site CAAGGGGCTAA)”, the “recombinant UMI read abundance (log10)” value stood at 2.43.

“CAAGGTGCATGGACCGGTTTTCCCGGTAATCCGTATTTGAT (site CAAGGTGCTAT)”: the “recombinant UMI read abundance (log10)” value came to 2.52. Turning to “CAAGGTGCATGGACCGGTTTTCCCGGTAATCCGTATTTGAT (site CCAGGTGCTAT)”, the “recombinant UMI read abundance (log10)” value is 0.8. Regarding “CAAGGTGCATGGACCGGTTTTCCCGGTAATCCGTATTTGAT (site CGAGGTGCTAT)”, the “recombinant UMI read abundance (log10)” value stood at 1.13.

For “CAAGGTGCATGGACCGGTTTTCCCGGTAATCCGTATTTGAT (site CTAGGTGCTAT)”, the “recombinant UMI read abundance (log10)” value amounted to 1.67.

As to “CAAGTAGCATGGACCGGTTTTCCCGGTAATCCGTATTTGCT (site CAAGAAGCTAG)”, the “recombinant UMI read abundance (log10)” value worked out at 0. With “CAAGTAGCATGGACCGGTTTTCCCGGTAATCCGTATTTGCT (site CAAGCAGCTAG)”, the “recombinant UMI read abundance (log10)” value worked out at 0.378.

For “CAAGTAGCATGGACCGGTTTTCCCGGTAATCCGTATTTGCT (site CAAGGAGCTAG)”, the “recombinant UMI read abundance (log10)” value stood at 0.0678. For the sequence “CAAGTAGCATGGACCGGTTTTCCCGGTAATCCGTATTTGCT (site CAAGTAGCTAG)”, the “recombinant UMI read abundance (log10)” value turned out to be 1.66. “CAAGTATCATGGACCGGTTTTCCCGGTAATCCGTATTTGAG (site CAAGTATCTCT)”: the “recombinant UMI read abundance (log10)” value is 3.07.

Turning to “CAAGTATCATGGACCGGTTTTCCCGGTAATCCGTATTTGAG (site CTAGTATCTGT)”, the “recombinant UMI read abundance (log10)” value came to 0. Consider “CAAGTCACATGGACCGGTTTTCCCGGTAATCCGTATTTGGA (site CAAGTCACTAC)”, for which the “recombinant UMI read abundance (log10)” value was found to be 0.358.

Turning to “CAAGTCACATGGACCGGTTTTCCCGGTAATCCGTATTTGGA (site CAAGTCACTCC)”, the “recombinant UMI read abundance (log10)” value turned out to be 0.638. Then “CAAGTCACATGGACCGGTTTTCCCGGTAATCCGTATTTGGA (site CAAGTCACTGC)”, with 0.803.

As for “CAAGTCACATGGACCGGTTTTCCCGGTAATCCGTATTTGGA (site CAAGTCACTTC)”, the “recombinant UMI read abundance (log10)” value amounted to 2.03. Turning to “CAAGTCACATGGACCGGTTTTCCCGGTAATCCGTATTTGTG (site CAAGTCACTCA)”, the “recombinant UMI read abundance (log10)” value is 0.0199. “CAAGTCACATGGACCGGTTTTCCCGGTAATCCGTATTTGTG (site CAAGTCACTCC)”: the “recombinant UMI read abundance (log10)” value was 0.0385.

As for “CAAGTCACATGGACCGGTTTTCCCGGTAATCCGTATTTGTG (site CAAGTCACTCG)”, the “recombinant UMI read abundance (log10)” value worked out at 0.151. With “CAAGTCACATGGACCGGTTTTCCCGGTAATCCGTATTTGTG (site CAAGTCACTCT)”, the “recombinant UMI read abundance (log10)” value amounted to 0.103. On to “CAAGTCCCATGGACCGGTTTTCCCGGTAATCCGTATTTGGG (site CAAGTCACTCC)”, for which the “recombinant UMI read abundance (log10)” value worked out at 0.0127.

As to “CAAGTCCCATGGACCGGTTTTCCCGGTAATCCGTATTTGGG (site CAAGTCCCTCC)”, the “recombinant UMI read abundance (log10)” value is 0.00917.

Take “CAAGTCCCATGGACCGGTTTTCCCGGTAATCCGTATTTGGG (site CAAGTCGCTCC)”: the “recombinant UMI read abundance (log10)” value was 0.0161. For “CAAGTCCCATGGACCGGTTTTCCCGGTAATCCGTATTTGGG (site CAAGTCTCTCC)”, the “recombinant UMI read abundance (log10)” value was 0.025. Then “CAAGTGCCATGGACCGGTTTTCCCGGTAATCCGTATTTGTG (site CAAGAGCCTCA)”, with 0.354; and “CAAGTGCCATGGACCGGTTTTCCCGGTAATCCGTATTTGTG (site CAAGCGCCTCA)”, with 0.389. On to “CAAGTGCCATGGACCGGTTTTCCCGGTAATCCGTATTTGTG (site CAAGGGCCTCA)”, for which the “recombinant UMI read abundance (log10)” value was determined as 0.21.

With “CAAGTGCCATGGACCGGTTTTCCCGGTAATCCGTATTTGTG (site CAAGTGCCTCA)”, the “recombinant UMI read abundance (log10)” value was found to be 0.662. Consider “CAATCGACATGGACCGGTTTTCCCGGTAATCCGTATTTGGG (site CAATCGACTCC)”, for which the “recombinant UMI read abundance (log10)” value turned out to be 0.0993. On to “CAATCGACATGGACCGGTTTTCCCGGTAATCCGTATTTGGG (site CACTCGACTCC)”, for which the “recombinant UMI read abundance (log10)” value amounted to 0.335. “CAATCGACATGGACCGGTTTTCCCGGTAATCCGTATTTGGG (site CAGTCGACTCC)”: the “recombinant UMI read abundance (log10)” value was 0. Regarding “CAATCGACATGGACCGGTTTTCCCGGTAATCCGTATTTGGG (site CATTCGACTCC)”, the “recombinant UMI read abundance (log10)” value stood at 0.0172.
